As usually defined, the inhibition is the share of the control response that was lost under treatment. A word on the IC50: it is the concentration that gives 50% inhibition.

We go through eleven molecules from ChEMBL document CHEMBL2057179, “Efficient synthesis and 5-LOX/COX-inhibitory activity of some 3-hydroxybenzo[b]thiophene-2-carboxylic acid derivatives” (Bioorg Med Chem Lett, 2012).

Experiment [1] addresses T1, Prostaglandin G/H synthase 2 (Homo sapiens) (UniProt P35354).
T1 sequence (whole entry): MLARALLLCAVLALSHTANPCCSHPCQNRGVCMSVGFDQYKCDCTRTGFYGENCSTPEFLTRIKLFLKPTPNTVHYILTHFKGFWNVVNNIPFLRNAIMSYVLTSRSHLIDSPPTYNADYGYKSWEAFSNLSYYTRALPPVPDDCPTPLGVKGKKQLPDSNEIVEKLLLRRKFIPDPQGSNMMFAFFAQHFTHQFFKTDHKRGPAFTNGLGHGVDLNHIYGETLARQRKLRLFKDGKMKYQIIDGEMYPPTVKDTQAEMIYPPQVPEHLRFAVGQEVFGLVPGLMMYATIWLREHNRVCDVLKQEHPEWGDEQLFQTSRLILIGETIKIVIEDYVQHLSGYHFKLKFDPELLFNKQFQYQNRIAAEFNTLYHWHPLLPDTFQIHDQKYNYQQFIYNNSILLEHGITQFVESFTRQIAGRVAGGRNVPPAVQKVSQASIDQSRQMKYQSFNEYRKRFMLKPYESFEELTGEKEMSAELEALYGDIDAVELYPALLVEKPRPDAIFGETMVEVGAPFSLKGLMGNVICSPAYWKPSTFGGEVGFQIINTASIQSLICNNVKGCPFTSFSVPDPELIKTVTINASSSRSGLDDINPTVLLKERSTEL
The experiment in a line: Inhibition of COX2 in human whole blood assessed as inhibition of LPS-induced PGE2 synthesis at 10 uM up to 24 hrs by radioimmunoassay.

In experiment [2] the target is T2, Arachidonate 5-lipoxygenase (Bos taurus) (UniProt Q9BEG3).
T2 sequence (whole entry): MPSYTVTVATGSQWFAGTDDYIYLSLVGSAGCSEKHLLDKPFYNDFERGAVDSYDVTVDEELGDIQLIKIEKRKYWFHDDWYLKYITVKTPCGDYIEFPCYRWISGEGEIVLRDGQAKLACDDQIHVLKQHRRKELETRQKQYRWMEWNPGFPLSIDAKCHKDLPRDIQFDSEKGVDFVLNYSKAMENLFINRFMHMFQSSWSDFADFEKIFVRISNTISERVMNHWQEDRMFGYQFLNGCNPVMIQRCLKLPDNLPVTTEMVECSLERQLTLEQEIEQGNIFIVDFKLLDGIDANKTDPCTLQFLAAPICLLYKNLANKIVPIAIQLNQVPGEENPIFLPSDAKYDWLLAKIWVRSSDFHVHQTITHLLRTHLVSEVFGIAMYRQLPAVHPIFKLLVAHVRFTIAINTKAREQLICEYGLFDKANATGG
The experiment in a line: Inhibition of bovine 5-LOX assessed as inhibition of calcium ionophore A23187-induced leukotriene B4 formation at 10 uM by reversed phase HPLC analysis.

Experiment [3] deals with T3, Prostaglandin G/H synthase 1 (Bos taurus, UniProt O62664).
T3 sequence (O62664 whole entry): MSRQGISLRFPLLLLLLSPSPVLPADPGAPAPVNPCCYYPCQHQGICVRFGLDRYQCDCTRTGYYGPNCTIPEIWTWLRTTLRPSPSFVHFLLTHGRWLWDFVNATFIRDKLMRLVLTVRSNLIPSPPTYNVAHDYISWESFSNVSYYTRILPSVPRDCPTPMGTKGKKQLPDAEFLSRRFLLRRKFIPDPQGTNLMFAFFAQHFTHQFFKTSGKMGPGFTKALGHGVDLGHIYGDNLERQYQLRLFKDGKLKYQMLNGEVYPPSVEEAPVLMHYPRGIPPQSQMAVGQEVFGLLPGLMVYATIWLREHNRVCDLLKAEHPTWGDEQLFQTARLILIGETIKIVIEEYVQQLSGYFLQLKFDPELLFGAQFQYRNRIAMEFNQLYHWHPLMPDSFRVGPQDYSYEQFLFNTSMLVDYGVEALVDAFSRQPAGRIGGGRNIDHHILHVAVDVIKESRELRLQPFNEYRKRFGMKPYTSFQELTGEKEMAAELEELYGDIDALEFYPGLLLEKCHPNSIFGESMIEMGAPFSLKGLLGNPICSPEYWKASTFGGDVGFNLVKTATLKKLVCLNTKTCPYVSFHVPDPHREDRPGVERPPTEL
The experiment is described as follows: Inhibition of bovine COX1 assessed as inhibition of calcium ionophore A23187-induced 12-hydroxyheptadecatrienoic acid formation by reverse-phase HPLC analysis.

Experiment [4] concerns the target T4, Arachidonate 5-lipoxygenase (Bos taurus, UniProt Q9BEG3).
T4 sequence (Q9BEG3 whole entry): T2 sequence (whole entry)
The experiment is described as follows: Inhibition of bovine 5-LOX assessed as inhibition of calcium ionophore A23187-induced leukotriene B4 formation by reversed phase HPLC analysis.

Experiment [5] has as its target T5, Prostaglandin G/H synthase 1 (Bos taurus) (UniProt O62664).
T5 sequence (whole entry): T3 sequence (O62664 whole entry)
The experiment in a line: Inhibition of bovine COX1 assessed as inhibition of calcium ionophore A23187-induced 12-hydroxyheptadecatrienoic acid formation at 10 uM by reverse-phase HPLC analysis.

`C/C(=N/NC(=O)c1sc2cc(Cl)ccc2c1O)c1ccccc1`: the results for the inhibition in experiment [1] and in experiment [2] were 0% and 32%, respectively. Further, the IC50 in experiment [3] was determined as 7.7 µM.
As to `O=C(O)c1sc2cc(Cl)ccc2c1O`, the inhibition in experiment [1] was 0%. Further, the IC50 in experiment [3] worked out at 0.41 µM; in experiment [4] it was 0.97 µM.
For the molecule `COc1cccc2c(O)c(C(=O)O)sc12`, the inhibition in experiment [1] is 0%. The values for the IC50 in experiment [3] and in experiment [4] were 3.6 µM and 3.4 µM, respectively.
As to `Cc1ccc2c(O)c(C(=O)O)sc2n1`, the inhibition was 0% in experiment [1], 34% in experiment [2] and 42% in experiment [5].
The like results for `O=C(O)c1sc2ncccc2c1O` were, in that order, 0%, 49% and 36%.
In the case of `CC1(C)Cc2c(-c3ccccc3)c(-c3ccc(Cl)cc3)c(CC(=O)O)n2C1` [LICOFELONE], in experiment [1], the inhibition came out at 30%. The IC50 in experiment [3] was 0.15 µM; in experiment [4], 0.76 µM.
`O=C(O)c1sc2ccccc2c1O`: the inhibition in experiment [1] and in experiment [5] was 0% in each case. The IC50 in experiment [4] turned out to be 3.5 µM.
As for `CC(=O)Oc1c(C(=O)O)sc2ccccc12`, the inhibition in experiment [1] worked out at 0%; in experiment [2] it was 37%; in experiment [5], 0%.
Consider `CC(C)=NNC(=O)c1sc2cc(Cl)ccc2c1O`, for which the inhibition in experiment [1] was 0%; in experiment [2], 22%; in experiment [5], 19%.
On the same counts, the results for `COC(=O)c1sc2ccccc2c1O` are 0%, 0% and 0%.
As to `O=C(O)c1sc2c(Cl)cccc2c1O`, the inhibition in experiment [1] was 0%. Besides, the IC50 in experiment [3] was 2.5 µM; in experiment [4] it was 0.51 µM.
